These results are taken from paper PMC10216478, “Development of a Non-Peptide Angiotensin II Type 1 Receptor Ligand by Structural Modification of Olmesartan as a Biased Agonist” (Biomedicines, 2023).

Changes are numbered by the printed parent chain.

What all share (details): competition with 125I-[Sar1,Ile8]Ang II, n = 3, mean ± standard error, read-out: Binding affinity (Kd)
For one assay, the target named is T1, AT1 wild-type receptor (Rattus norvegicus, UniProt P25095).
T1 construct: expressed in transfected cells; host or cells: COS7
T1 sequence (P25095 1-359): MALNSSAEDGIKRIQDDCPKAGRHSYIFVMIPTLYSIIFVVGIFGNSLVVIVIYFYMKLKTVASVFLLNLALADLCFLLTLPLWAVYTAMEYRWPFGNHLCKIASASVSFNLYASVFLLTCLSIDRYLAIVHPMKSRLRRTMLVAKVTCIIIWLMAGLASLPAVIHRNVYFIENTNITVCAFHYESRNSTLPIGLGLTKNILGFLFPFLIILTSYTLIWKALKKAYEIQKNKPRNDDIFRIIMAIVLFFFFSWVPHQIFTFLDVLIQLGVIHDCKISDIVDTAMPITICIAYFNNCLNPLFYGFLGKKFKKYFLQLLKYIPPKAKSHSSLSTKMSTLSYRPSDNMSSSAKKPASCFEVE
The assay can be described thus: Competition binding study, 125I-[Sar1,Ile8]Ang II, AT1 wild-type receptor. On the procedure:
(§1) The synthetic rat AT1 receptor gene, which was cloned in the shuttle expression vector pMT-2, was used for expression and mutagenesis, as described previously. COS7 cells (No. CRL-1651, ATCC, Manassas, VA, USA) were cultured in 10% fetal bovine serum (FBS) and penicillin- and streptomycin-supplemented Dulbecco’s modified Eagle’s essential medium (PS-DMEM) in 5% CO2 at 37 °C. In the experiments, cells were grown without a cell-growth supplement. To express the AT1 receptor protein, 10 µg of purified plasmid DNA per 10^7 cells was used in the transfection. […] We then analyzed the parameters in transfected cells. […]
(§2) The Kd (nM) values of receptor binding were determined with ^125I-[Sar^1, Ile^8]AngII-binding experiments under equilibrium conditions. Binding kinetics were determined following the methods described in the literature. […] Ang II was determined in the presence of a high concentration (10^−6 M) of unlabeled [Sar^1, Ile^8]. […] The radioactivity trapped on the filters was quantified using an automatic γ-counter. The percentage (%) of specific binding of ^125I-[Sar^1, Ile^8]Ang II was calculated using the following formula: 100 × (% total binding of ^125I-[Sar^1, Ile^8]Ang II—nonspecific binding of ^125I-[Sar^1, Ile^8]Ang II)/(% total binding of ^125I-[Sar^1, Ile^8]Ang II).

In the next assay the target is T2, AT1 L112A receptor (Rattus norvegicus, UniProt P25095, L112A).
T2 construct: expressed in transfected cells; host or cells: COS7
T2 sequence (P25095 1-359 L112A): T1 sequence (P25095 1-359) with L112A
Kind of assay: Competition binding study, 125I-[Sar1,Ile8]Ang II, AT1 L112A receptor.
Text: (§3) We mutated four amino acids in transmembrane (TM) III, VI, and VII in the AT1 receptor (L112A, Q257A, Y292A, and N295A receptors). We determined the mutation sites of the AT1 receptor according to ARB, which produced olmesartan derivatives with different interactions and functions toward the AT1 receptor, as previously reported by Zhang et al., since the additional 4-hydroxybenzyl groups of R781253 and R794847 were predicted to extend to a sub-pocket on the bottom of the AT1 receptor ligand-binding pocket consisting of Leu^112 and Gln^257. In addition, since the biased ligand TRV027 induced changes near the NPxxY motif in TM domain 7 that are related to receptor activation, Tyr^292 and Asn^295 in the AT1 receptor were mutated.
as §1, §2

The next assay addresses T3, AT1 Q257A receptor (Rattus norvegicus, UniProt P25095, Q257A).
T3 construct: expressed in transfected cells; host or cells: COS7
T3 sequence (P25095 1-359 Q257A): T1 sequence (P25095 1-359) with Q257A
The assay can be described thus: Competition binding study, 125I-[Sar1,Ile8]Ang II, AT1 Q257A receptor.
Text: as §3
(§4) The synthetic rat AT1 receptor gene, which was cloned in the shuttle expression vector pMT-2, was used for expression and mutagenesis, as described previously. COS7 cells (No. CRL-1651, ATCC, Manassas, VA, USA) were cultured in 10% fetal bovine serum (FBS) and penicillin- and streptomycin-supplemented Dulbecco’s modified Eagle’s essential medium (PS-DMEM) in 5% CO2 at 37 °C. In the experiments, cells were grown without a cell-growth supplement. To express the AT1 receptor protein, 10 µg of purified plasmid DNA per 10^7 cells was used in the transfection. Wild-type and mutated AT1 receptors were transiently transfected into cells using Lipofectamine 2000 liposomal reagent (Roche Applied Science, Penzberg, Germany). Cells were plated and grown and were 70–90% confluent at the time of transfection. We incubated plasmid DNA (10 µg)–lipid (10 µL) complexes for 5 min at room temperature and added and incubated the complexes with cells for 24 h. We then analyzed the parameters in transfected cells. Cell viability was >95% according to trypan blue exclusion analysis in the control experiments. Transfected cells that had been cultured for 48–72 h were harvested. Cell membranes were prepared using the nitrogen Parr bomb disruption or freeze–thaw methods.
(§5) The Kd (nM) values of receptor binding were determined with ^125I-[Sar^1, Ile^8]AngII-binding experiments under equilibrium conditions. Binding kinetics were determined following the methods described in the literature. We carried out binding by using ^125I-[Sar^1, Ile^8] AngII (2200 Ci/mmol) and an increasing concentration (10^−11–10^−5 M) of each unlabeled compound. Nonspecific binding of ^125I-[Sar^1, Ile^8] Ang II was determined in the presence of a high concentration (10^−6 M) of unlabeled [Sar^1, Ile^8]. Next, the incubation mixture was separated by vacuum filtration through Whatman GF/C glass filters (Disposable Filter Funnels Grade GF/C, GE Healthcare), and presoaked with 0.1% polyethylenimine. The filter was washed with 3 mL of ice-cold stop buffer (25 mM Tris–HCl, pH 7.4, 1 mM MgCl2). The radioactivity trapped on the filters was quantified using an automatic γ-counter. The percentage (%) of specific binding of ^125I-[Sar^1, Ile^8]Ang II was calculated using the following formula: 100 × (% total binding of ^125I-[Sar^1, Ile^8]Ang II—nonspecific binding of ^125I-[Sar^1, Ile^8]Ang II)/(% total binding of ^125I-[Sar^1, Ile^8]Ang II).

The target of a further assay is T4, AT1 Y292A receptor (Rattus norvegicus, UniProt P25095, Y292A).
T4 construct: expressed in transfected cells; host or cells: COS7
T4 sequence (P25095 1-359 Y292A): T1 sequence (P25095 1-359) with Y292A
Kind of assay: Competition binding study, 125I-[Sar1,Ile8]Ang II, AT1 Y292A receptor.
Text: as §3, §4, §5

For a further assay, the target named is T5, AT1 N295A receptor (Rattus norvegicus, UniProt P25095, N295A).
T5 construct: expressed in transfected cells; host or cells: COS7
T5 sequence (P25095 1-359 N295A): T1 sequence (P25095 1-359) with N295A
The assay can be described thus: Competition binding study, 125I-[Sar1,Ile8]Ang II, AT1 N295A receptor.
Text: as §3, §4, §5

In the case of `CC[C@H](C)[C@H](NC(=O)[C@@H]1CCCN1C(=O)[C@H](Cc1c[nH]cn1)NC(=O)[C@@H](NC(=O)[C@H](Cc1ccc(O)cc1)NC(=O)[C@@H](NC(=O)[C@H](CCCN=C(N)N)NC(=O)CNC)C(C)C)[C@@H](C)CC)C(=O)O` [[Sar^1,Ile^8]Ang II, [Sar^1, Ile^8]Ang II, reference compound], the Kd at AT1 wild-type receptor amounted to 0.8 ± 0.4 nM; on AT1 L112A receptor, 1.3 ± 0.3 nM; at AT1 Q257A receptor, 3.3 ± 1.5 nM; at AT1 Y292A receptor, 2.1 ± 0.9 nM; at AT1 N295A receptor it was 7 ± 2 nM.

In general, Kd refers to the free concentration of one partner at which half of the binding sites on the other are occupied at equilibrium, for simple one-to-one binding.
